Laboratory results as given in ChEMBL document CHEMBL3286147 (J Med Chem, 2014).
Each block holds one compound with its values, some of them ahead of it.

How the values were obtained:
[1] = test system: Hepatitis C virus; assay: Antiviral activity against Hepatitis C virus genotype 1b infected in human HuH7 cells after 72 hrs by FRET assay; format: functional, cell-based, Hepacivirus hominis; settings: Huh-7, 72 h
[2] = Selectivity ratio of EC50 for Bovine viral diarrhea virus to EC50 for Hepatitis C virus genotype 1b; format: functional
[3] = test system: Bovine viral diarrhea virus 1; assay: Antiviral activity against Bovine viral diarrhea virus infected in human HuH7 cells after 72 hrs by luciferase reporter gene assay; format: functional, organism-based; settings: Bovine viral diarrhea virus isolates and strains, Huh-7, 72 h
[4] = Cytotoxicity against human HuH7 cells by Alamar blue assay; format: cell-based, Huh-7
[5] = test system: Hepatitis C virus; assay: Selectivity ratio of EC50 for Hepatitis C virus genotype 1b harboring NS5A Y93H mutation to EC50 for Hepatitis C virus genotype 1b; format: functional, Hepacivirus hominis
[6] = test system: Hepatitis C virus; assay: Selectivity ratio of EC50 for Hepatitis C virus genotype 1b harboring NS5A L31V/Q54L mutation to EC50 for Hepatitis C virus genotype 1b; format: functional, Hepacivirus hominis
[7] = test system: Hepatitis C virus; assay: Antiviral activity against Hepatitis C virus genotype 1a; format: functional, Hepacivirus hominis; settings: subtype 1a
[8] = test system: Hepatitis C virus; assay: Antiviral activity against Hepatitis C virus genotype 1 infected in human assessed as log10 IU/ml reduction in mean plasma viral load at 1 mg measured at 24 hrs; format: functional, Hepacivirus hominis
[9] = test system: Hepatitis C virus; assay: Antiviral activity against Hepatitis C virus genotype 1 infected in human assessed as log10 IU/ml reduction in mean plasma viral load at 10 mg measured at 24 hrs; format: functional, Hepacivirus hominis
[10] = test system: Hepatitis C virus; assay: Antiviral activity against Hepatitis C virus genotype 1b infected in human assessed as log10 IU/ml reduction in mean plasma viral load at 100 mg measured at 24 hrs; format: functional, Hepacivirus hominis
[11] = in vivo; settings: rat, liver, 5 mg/kg
Description: Ratio of drug level in liver to plasma in rat at 5 mg/kg

[12] = test system: Hepatitis C virus; assay: microbe, parasite or virus in culture; settings: genotype 2a JFH-1
Description: Antiviral activity against Hepatitis C virus genotype 2a JFH

[13] = test system: Hepatitis C virus; assay: Antiviral activity against Hepatitis C virus genotype 1b; format: functional, Hepacivirus hominis

EC50 [1]: 6000 nM
SMILES: O=C(Nc1ccc(C2S/C(=N\c3cccc(F)c3)N(Cc3ccco3)C2=O)cc1)[C@H]1CCCN1C(=O)OCc1ccccc1 (stereo partly drawn)

EC50 [1]: 1900 nM
SMILES: C[C@H](NC(=O)CCc1ccccc1)C(=O)Nc1ccc(C2S/C(=N\c3cccc(F)c3)N(Cc3ccco3)C2=O)cc1 (stereo partly drawn)

EC50 [1]: 5500 nM
SMILES: O=C(Nc1ccc(C2S/C(=N\c3cccc(F)c3)N(Cc3ccco3)C2=O)cc1)[C@@H]1CCCN1C(=O)CCc1ccccc1 (stereo partly drawn)

EC50 [1]: 38 nM
SMILES: C[C@H](NC(=O)OCc1ccccc1)C(=O)Nc1ccc(C2S/C(=N\c3cccc(F)c3)N(Cc3cnccn3)C2=O)cc1 (stereo partly drawn)

EC50 [1]: 2 nM
SMILES: C[C@H](NC(=O)OCc1ccccc1)C(=O)Nc1ccc(C2S/C(=N\c3cccc(F)c3)N(Cc3ccccn3)C2=O)cc1 (stereo partly drawn)

EC50 [1]: 15 nM
SMILES: C[C@H](NC(=O)OCc1ccccc1)C(=O)Nc1ccc(C2S/C(=N\c3ccc(N4CCOCC4)c(F)c3)N(Cc3ccco3)C2=O)cc1 (stereo partly drawn)

EC50 [1]: 2 nM
SMILES: O=C(Nc1ccc(C2S/C(=N\c3cccc(F)c3)N(Cc3ccco3)C2=O)cc1)[C@H]1CCCN1C(=O)Cc1ccccc1 (stereo partly drawn)

Continued, compound first:

SMILES: C[C@H](NC(=O)OCc1ccccc1)C(=O)Nc1ccc(C2S/C(=N\c3cccc(F)c3)N(Cc3ccco3)C2=O)cc1 (stereo partly drawn)
EC50 [1]: 570 nM
Ratio EC50 [2]: > 50
EC50 [3]: > 50000 nM
CC50 [4]: > 50000 nM
Ratio EC50 [5]: >5

SMILES: C[C@H](NC(=O)Cc1ccccc1)C(=O)Nc1ccc(C2S/C(=N\c3cccc(F)c3)N(Cc3ccco3)C2=O)cc1 (stereo partly drawn)
EC50 [1]: 5 nM
Ratio EC50 [5]: >625
Ratio EC50 [6]: 354

SMILES: O=C(Nc1ccc(/C=C/c2ccc(NC(=O)[C@@H]3CCCN3C(=O)Cc3ccccc3)cc2)cc1)[C@@H]1CCCN1C(=O)Cc1ccccc1
EC50 [7]: > 10000 nM

SMILES: COC(=O)N[C@H](C(=O)N1CCC[C@H]1c1ncc(-c2ccc(-c3ccc(-c4cnc([C@@H]5CCCN5C(=O)[C@@H](NC(=O)OC)C(C)C)[nH]4)cc3)cc2)[nH]1)C(C)C
Activity [8]: 1.8 log10IU/ml
Activity [9]: 3.2 log10IU/ml
Activity [10]: 3.6 log10IU/ml
Kp [11]: 5
EC50 [12]: 0.028 nM

SMILES: O=C1N[C@H]2[C@H](CO[C@H]2CCCCC(=O)N2CCC[C@H]2C(=O)Nc2ccc(/C=C/c3ccc(NC(=O)[C@@H]4CCCN4C(=O)Cc4ccccc4)cc3)cc2)N1
EC50 [13]: > 10000 nM

SMILES: C[C@H](NC(=O)OCc1ccccc1)C(=O)Nc1ccc(C2S/C(=N\c3cccc(F)c3)N(Cc3cc(F)c(F)c(F)c3)C2=O)cc1 (stereo partly drawn)
EC50 [1]: 600 nM
